These are literature values, as cited in US20100196443A1, “USE OF CORDYCEPS SPECIES OR EXTRACT THEREOF IN THE EGG PRODUCTION” (A P NUTRIPHARM PTE. LTD., priority 2007, published 2010).

The subject of this data set is RNA cell. As to conditions: Siev et al., 1969.

Each structure is given as a SMILES string.

On to `Nc1ncnc2c1ncn2[C@@H]1O[C@H](CO)C[C@H]1O` [cordycepin, 3-deoxyadenosine], for which the “nucleolar RNA synthesis” value is given as “can inhibit nucleolar RNA synthesis”.
